# Measured values from patent US7261875B2, “Dendritic poly (amino acid) carriers and methods of use” (Board of Regents, The University of Texas System, priority 2001, dated 2007).
# Tests used:
# [1] = tested on: syngeneic murine ovarian OCA-1 tumor; assay: Tumor growth delay after a single intravenous dose; details: dose of 60 mg/kg, single i.v. dose, tumors 8 mm
# [2] = tested on: human vulvar squamous A431 cell line; assay: MTT assay, growth inhibition of A431 cells; type: cell-based; details: A-431, 72 hrs continuous incubation, equivalent TXL concentrations, read-out: estimated IC50, growth inhibition
# Procedure: The MTT assay was used to quantitatively compare the effects of PAMAM-PG8-TXL, linear PG-TXL, and paclitaxel on cell growth in a human vulvar squamous A431 cell line. Cells were plated in a 96-well plate at a density of 2000 cells/well and then incubated with various concentrations of paclitaxel, PAMAM-PG8-TXL, or linear PG-TXL.
# [3] = Body weight loss after treatment; details: 60 mg/kg, single i.v. dose
# SK-Br3 cells = assay: Fluorescence microscopy, non-specific interaction of near-infrared dyes with FR-negative cells; type: cell-based, human; details: SK-Br3 cells (do not express FR), 30 minute incubation, 37° C.
# Procedure: The folic acid receptors (FR)-mediated binding of near-infrared gluorescent conjugate PAMAM-PG16-ICG-folate was studied using a human nasopharyngeal epidermal carcinoma cell line KB and a human breast carcinoma cell line SK-BR3. KB cells over-express the FR, whereas SK-Br3 cells have no detectable […]. Cells were incubated with PAMAM-PG16-ICG-folate, indocyanine green (ICG, Sigma-Aldrich Corp. St. Louis, Mo.) or ICG-NH2 at 37° C. on cover clips in a 24-well place (Beckton Dickinson Labware, Franklin Kakes, N.J.). Each well contained 0.5 ml Dulbecco's Modified Eagle's medium/nutrient Mixture F-12 Ham (DMEM/F12) containing 10% FBS (Gibco, Grand Island, N.Y.). The final concentration of the conjugate was calculated based on the equivalent does of folic acid and ICG-NH2. For the blocking study, free folic acid was added to the culture medium 30 minutes prior to the addition of the test agents. […] Data were recorded by a Leica DMR microscope (Leica Microsystems Inc. Brannockburn, Ill.) equipped with a 75 W Xenon lamp, Indo-Cyanine Green and FITC filters (775/845 and 480/535, excitation/emission, respectively) (Chroma Technology Corp., Brattleboro, Vt.), Hamamatsue B/W Chilled CCD camera (Hamamatsu Photonics, K.K. Hamamamatsu City, Japan) and Image-Pro Plus 4.5.1 software (Media Cybernetics, L. P., Silver Spring, Md.). […]
IC50 [2],Structure (SMILES),growth delay [1],body weight loss [3],fluorescence / non-specific interaction with cells (SK-Br3 cells)
< 1 nM,CC(=O)O[C@H]1C(=O)[C@@]2(C)[C@H]([C@H](OC(=O)c3ccccc3)[C@]3(O)C[C@H](OC(=O)[C@H](O)[C@@H](NC(=O)c4ccccc4)c4ccccc4)C(C)=C1C3(C)C)[C@]1(OC(C)=O)CO[C@@H]1C[C@@H]2O [paclitaxel],14 days,10%,–
–,"CC1(C)C(/C=C/C=C/C=C/C=C2\N(CCCCS(=O)(=O)O)c3ccc4ccccc4c3C2(C)C)=[N+](CCCCS(=O)(=O)[O-])c2ccc3ccccc3c21 [ICG, indocyanine green]",–,–,did not have detectable non-specific interaction
